Measurements as given in patent US20030215462A1, “Use of UGT inhibitors to increase bioavailability” (priority 2001, published 2003).

Assays:
[1] = target: T1, UGT1A6 (Homo sapiens, UniProt P19224); experiment: Substrate glucuronidation by recombinant UGT1A6; conditions: for 7-HFC glucuronidation rate: 7-HFC 50 μM
T1 sequence (P19224 27-532): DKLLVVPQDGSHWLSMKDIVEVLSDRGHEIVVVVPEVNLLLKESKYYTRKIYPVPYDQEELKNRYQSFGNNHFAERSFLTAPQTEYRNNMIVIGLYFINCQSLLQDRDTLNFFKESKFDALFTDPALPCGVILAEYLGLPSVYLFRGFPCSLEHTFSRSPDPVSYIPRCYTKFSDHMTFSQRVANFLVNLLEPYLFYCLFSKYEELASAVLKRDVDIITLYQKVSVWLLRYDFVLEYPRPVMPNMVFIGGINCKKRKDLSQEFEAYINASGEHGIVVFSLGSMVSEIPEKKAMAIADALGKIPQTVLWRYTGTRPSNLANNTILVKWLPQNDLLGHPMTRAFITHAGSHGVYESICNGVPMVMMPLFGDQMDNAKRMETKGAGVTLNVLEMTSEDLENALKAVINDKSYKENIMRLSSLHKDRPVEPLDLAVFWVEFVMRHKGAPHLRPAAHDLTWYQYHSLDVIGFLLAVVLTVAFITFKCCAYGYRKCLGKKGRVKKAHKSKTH

[2] = target: UGT1A4 (Homo sapiens, UniProt P22310)
Sequence of UGT1A4 (P22310 29-534): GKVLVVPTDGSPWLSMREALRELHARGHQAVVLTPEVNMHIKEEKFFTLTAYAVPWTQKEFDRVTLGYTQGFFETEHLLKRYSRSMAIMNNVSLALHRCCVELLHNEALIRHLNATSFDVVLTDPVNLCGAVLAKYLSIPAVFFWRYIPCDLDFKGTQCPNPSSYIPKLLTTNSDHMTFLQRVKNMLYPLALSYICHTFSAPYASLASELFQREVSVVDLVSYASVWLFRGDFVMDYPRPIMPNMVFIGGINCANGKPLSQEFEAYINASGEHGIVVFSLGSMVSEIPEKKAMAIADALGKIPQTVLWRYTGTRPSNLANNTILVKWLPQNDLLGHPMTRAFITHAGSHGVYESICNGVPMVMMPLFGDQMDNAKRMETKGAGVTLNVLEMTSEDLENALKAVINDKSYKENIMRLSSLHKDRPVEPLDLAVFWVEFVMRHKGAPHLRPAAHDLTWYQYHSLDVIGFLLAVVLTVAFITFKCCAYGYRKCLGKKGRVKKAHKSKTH

| SMILES | 7-HFC glucuronidation rate in Panvera Bacculosomes as % of Gentest Supersomes ([1]; UGT1A6) [%] | 7-HFC glucuronidation rate ([1]; UGT1A6 Bacculosomes 250 μg/ml) [pmol/min/mg protein] | 7-HFC glucuronidation rate ([1]; UGT1A6 Supersomes 250 μg/ml) [pmol/min/mg protein] | labetalol metabolism, in words [2] |
| --- | --- | --- | --- | --- |
| O=c1cc(C(F)(F)F)c2ccc(O)cc2o1 [7-HFC, 7-hydroxy-4-(trifluoromethyl)coumarin] | 31 | 1528 ± 34 | 4904 ± 368 | – |
| CC(CCc1ccccc1)NCC(O)c1ccc(O)c(C(N)=O)c1 (stereo not shown) [Labetalol, labetalol] | – | – | – | No detectable metabolism was observed |
